In patent publication US10717733B2, “Haloallylamine indole and azaindole derivative inhibitors of lysyl oxidases and uses thereof” (PHARMAXIS LTD., priority 2016, dated 2020):
Where a name gives a salt, the structure may show the parent alone.

Legend:
Recombinant human MAO-B = Recombinant human MAO-B (Homo sapiens (Human), UniProt P27338); assay: Inhibition of human recombinant MAO-B; type: biochemical; settings: benzylamine 100 μM
How it was run: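 Recombinant human MAO-B used as enzyme source (0.06 mg/mL, stated concentration). Run as for the human SSAO/VAP-1 assay, except benzylamine substrate at 100 μM.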

[1] = system: primary fibroblasts from confirmed cases of IPF; assay: Collagen cross-link formation in in vitro fibroblastic foci model of IPF; type: cell-based, human; settings: TGF-β1 stimulated foci, six weeks culture, FIGS. 7a and 7b
Text: The lung tissue of patients with idiopathic pulmonary fibrosis (IPF) is characterised by dense collections of myofibroblasts and extracellular matrix (ECM) termed ‘fibroblastic foci’. Using a novel in vitro model of fibroblastic foci (Jones et al., AJRCCM 191; 2015:A4912) the formation of lysyl oxidase (LOX) mediated collagen cross-links and the effects of the nonselective LOX inhibitor β-aminopropionitrile (BAPN) as well lysyl oxidase like-2 (LOXL2)-selective inhibitors were investigated.
Cultures of primary fibroblasts were grown out from clinical diagnostic biopsies of fibrotic lung and stored in liquid nitrogen. […]
To quantify collagen cross-links (Robins Biochem Soc Trans 2007; 35(5): 849-852; Saito et al Anal. Biochem. 1997; 253: 26-32; Sims, Avery & Bailey Methods in Molecular Biology 2000; vol 139: 11-26), cultures were treated with potassium borohydride to stabilise the reducible immature cross-links, and hydrolysed in 6N HCl at 100° C. for 16 hr. Total collagen content was assessed by hydroxyproline assay. Immature cross-links were assessed by LC/MS/MS and mature pyridinoline cross-links by ELISA. Cross-link data is expressed as moles of cross-link per mole collagen.

[2] = biological target: human recombinant SSAO/VAP-1 (Homo sapiens (Human), UniProt Q16853); assay: Inhibition of human recombinant SSAO/VAP-1 amine oxidase activity; type: biochemical; settings: 30 min preincubation at 37° C., 600 μM benzylamine
How it was run: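 Purified SSAO/VAP-1 (residues 34-763, expressed in CHO Lec 8 cells; 0.25 μg/mL) preincubated 30 min at 37° C with compound in 0.1 M sodium phosphate pH 7.4. Reaction mix of 600 μM benzylamine, 120 μM Amplex Red and 1.5 U/mL HRP added; fluorescence (ex 565/em 590 nm) read every 2.5 min for 30 min; IC50 from kinetic slopes over 4-11 point curves.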

Bovine LOX = Bovine LOX (Bos taurus (Bovine), UniProt P33072); assay: LOX inhibition, peroxidase-coupled Amplex Red amine oxidase assay; type: biochemical; settings: 30 min preincubation at 37° C., putrescine substrate
How it was run: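 Bovine LOX in 1.2 M urea, 50 mM sodium borate pH 8.2 with 1 μM mofegiline and 0.5 mM pargyline; putrescine at twice KM (e.g. 20 mM for LOX) with Amplex Red/HRP. Fluorescence (ex 565/em 590 nm) read kinetically over 30 min at 37–45 °C; IC50 from slopes.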

Human LOXL2 = Human LOXL2 (Homo sapiens (Human), UniProt Q9Y4K0); assay: LOXL2 inhibition, peroxidase-coupled Amplex Red amine oxidase assay; type: biochemical; settings: 30 min preincubation at 37° C., putrescine substrate
How it was run: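 Enzyme in 1.2 M urea, 50 mM sodium borate pH 8.2 with 1 μM mofegiline and 0.5 mM pargyline, preincubated 30 min at 37° C with compound (11-point CRC). Putrescine at twice KM (10 mM for LOXL2) with Amplex Red/HRP; fluorescence (ex 565, em 590) read kinetically 30 min; IC50 from slopes.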

Bovine LOX, sequence (P33072 170-418): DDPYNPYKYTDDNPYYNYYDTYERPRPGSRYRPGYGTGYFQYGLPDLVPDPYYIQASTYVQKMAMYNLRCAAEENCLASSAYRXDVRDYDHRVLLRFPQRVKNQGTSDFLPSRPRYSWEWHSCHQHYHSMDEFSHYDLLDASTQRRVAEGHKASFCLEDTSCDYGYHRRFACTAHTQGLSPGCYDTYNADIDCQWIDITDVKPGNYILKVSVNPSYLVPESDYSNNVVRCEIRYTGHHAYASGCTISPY
Human LOXL2, sequence (Q9Y4K0 26-774): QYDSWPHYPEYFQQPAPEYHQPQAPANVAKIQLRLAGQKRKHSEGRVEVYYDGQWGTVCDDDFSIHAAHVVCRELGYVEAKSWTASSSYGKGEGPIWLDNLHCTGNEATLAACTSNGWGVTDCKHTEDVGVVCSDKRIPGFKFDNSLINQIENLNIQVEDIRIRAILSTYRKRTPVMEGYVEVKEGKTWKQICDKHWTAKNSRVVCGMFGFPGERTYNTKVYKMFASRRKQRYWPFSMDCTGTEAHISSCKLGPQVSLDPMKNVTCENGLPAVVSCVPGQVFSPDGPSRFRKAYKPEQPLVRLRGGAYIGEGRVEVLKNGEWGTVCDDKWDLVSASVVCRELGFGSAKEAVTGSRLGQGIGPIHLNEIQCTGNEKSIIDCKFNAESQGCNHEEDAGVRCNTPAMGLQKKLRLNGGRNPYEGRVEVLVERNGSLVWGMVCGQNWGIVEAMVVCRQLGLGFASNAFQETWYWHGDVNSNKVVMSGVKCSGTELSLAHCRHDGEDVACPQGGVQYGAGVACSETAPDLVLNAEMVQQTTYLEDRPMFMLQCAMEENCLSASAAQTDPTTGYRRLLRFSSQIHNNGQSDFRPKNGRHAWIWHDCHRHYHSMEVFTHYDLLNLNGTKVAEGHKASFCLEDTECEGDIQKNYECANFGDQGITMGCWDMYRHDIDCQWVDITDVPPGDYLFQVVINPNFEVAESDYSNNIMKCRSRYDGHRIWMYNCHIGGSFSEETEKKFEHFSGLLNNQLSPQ
human recombinant SSAO/VAP-1, sequence (Q16853 34-763): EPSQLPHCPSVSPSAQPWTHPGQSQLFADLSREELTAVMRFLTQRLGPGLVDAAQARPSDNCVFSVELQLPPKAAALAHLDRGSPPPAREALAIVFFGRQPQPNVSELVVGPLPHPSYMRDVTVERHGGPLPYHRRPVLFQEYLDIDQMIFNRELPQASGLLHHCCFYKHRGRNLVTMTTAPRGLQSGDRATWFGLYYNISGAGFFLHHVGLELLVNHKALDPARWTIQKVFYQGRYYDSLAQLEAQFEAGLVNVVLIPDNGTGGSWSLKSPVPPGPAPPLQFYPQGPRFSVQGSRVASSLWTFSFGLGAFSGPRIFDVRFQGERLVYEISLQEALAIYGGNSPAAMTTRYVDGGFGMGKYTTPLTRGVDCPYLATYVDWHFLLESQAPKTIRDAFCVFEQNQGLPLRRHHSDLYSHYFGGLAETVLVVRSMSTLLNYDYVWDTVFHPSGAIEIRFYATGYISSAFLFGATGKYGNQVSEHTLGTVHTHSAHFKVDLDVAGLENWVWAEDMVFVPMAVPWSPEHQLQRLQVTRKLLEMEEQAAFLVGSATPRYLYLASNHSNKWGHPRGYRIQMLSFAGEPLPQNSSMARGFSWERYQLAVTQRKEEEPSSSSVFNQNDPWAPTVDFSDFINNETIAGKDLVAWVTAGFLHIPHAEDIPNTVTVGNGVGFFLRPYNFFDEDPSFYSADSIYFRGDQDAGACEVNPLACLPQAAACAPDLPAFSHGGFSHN
Recombinant human MAO-B, sequence (P27338 whole entry): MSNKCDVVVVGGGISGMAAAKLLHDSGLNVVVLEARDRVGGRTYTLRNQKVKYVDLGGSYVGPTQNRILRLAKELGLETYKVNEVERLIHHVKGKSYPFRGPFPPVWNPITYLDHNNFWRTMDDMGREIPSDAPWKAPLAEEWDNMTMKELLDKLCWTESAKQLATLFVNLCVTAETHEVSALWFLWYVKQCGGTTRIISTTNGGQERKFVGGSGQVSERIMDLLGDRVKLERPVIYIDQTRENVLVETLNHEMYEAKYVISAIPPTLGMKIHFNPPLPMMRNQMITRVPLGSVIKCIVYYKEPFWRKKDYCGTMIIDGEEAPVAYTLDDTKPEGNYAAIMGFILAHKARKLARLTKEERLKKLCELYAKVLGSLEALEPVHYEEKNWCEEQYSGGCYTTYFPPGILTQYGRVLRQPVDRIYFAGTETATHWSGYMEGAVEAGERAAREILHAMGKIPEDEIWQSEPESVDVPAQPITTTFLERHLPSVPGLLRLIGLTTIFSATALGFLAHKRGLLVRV

| Compound | IC50 (Recombinant human MAO-B) [µM] | collagen cross-link formation (immature and mature cross-links) [1] | IC50 [2] [µM] | IC50 (Bovine LOX) [µM] | IC50 (Human LOXL2) [µM] |
| --- | --- | --- | --- | --- | --- |
| N#CCCN [BAPN, β-aminopropionitrile, reference compound] | > 3 | reduced cross-link formation in a concentration dependent manner | > 3 | > 1 | < 1 |
| CNS(=O)(=O)c1cccc(-c2c(C)n(C/C(F)=C/CN)c3ccc(C(=O)O)cc23)c1 [Compound 18, (Z)-1-(4-amino-2-fluorobut-2-en-l-yl)-2-methyl-3-(3-(N-methylsulfamoyl)phenyl)-1H-indole-5-carboxylic acid, Hydrochloride] | > 3 | – | > 3 | > 0.3 | < 0.3 |
| COC(=O)c1ccc2c(-c3cccc(S(=O)(=O)N(C)C)c3)c(C)n(C/C(F)=C/CN)c2c1 [Compound 7, (Z)-methyl 1-(4-amino-2-fluorobut-2-en-1-yl)-3-(3-(N,N-dimethylsulfamoyl)phenyl)-2-methyl-1H-indole-6-carboxylate] | > 3 | – | > 3 | > 0.3 | < 0.3 |
| Cc1c(-c2cccc(S(=O)(=O)N(C)C)c2)c2nc(O)ccc2n1C/C(F)=C/CN [Compound 60, (Z)-3-(1-(4-amino-2-fluorobut-2-en-1-yl)-5-hydroxy-2-methyl-1H-pyrrolo[3,2-b]pyridin-3-yl)-N,N-dimethylbenzenesulfonamide Hydrochloride] | > 3 | – | > 3 | > 0.3 | < 0.3 |
